The values below come from patent publication US20110059947A1, “ALPHA 7 NICOTINIC AGONISTS AND ANTIPSYCHOTICS” (Targacept, Inc., priority 2008, published 2011).

Structures are written as SMILES.

The test system of assay [1] is th(tk-)/th(tk-) mice. In words: Prepulse inhibition (PPI) and acoustic startle in th(tk-)/th(tk-) and control mice. Type of assay: in vivo.
The test system of a further assay is db/db mice. Description: Plasma glucose and body weight in obese db/db mice. Format: in vivo. The conditions noted are these: 1 mg/kg.
Assay [2] deals with th(tk-)/th(tk-) mice. Description: Social behavior, nonsocial autogrooming and open field activity. Type of assay: in vivo. The note with it: 1 mg/kg i.p. As for the experimental part:
B. […] On testing days, each subject received three tests: a social behavior test with a female, a social behavior test with a male, and an open-field test. There was a 30-minute interval between each test. Social behavior was tested using a variant of the resident-intruder paradigm, in which a stimulus animal was introduced into the subject's homecage for three minutes. Prior to testing the subjects' home cages were not changed for at least four days to allow them to establish the cage as their territory. Female stimulus animals were singly-housed, randomly cycling C57BI/6Js (Jackson Laboratories, Bar Harbor, Me.). Each subject was tested with a different stimulus animal and each stimulus animal was used only once per testing day. Male stimulus animals were singly-housed C57BI/6Js (Jackson Laboratories, Bar Harbor, Me.). Each subject was tested with a different stimulus animal and each stimulus animal was used only once per testing day. A stimulus female was placed into the cage of wild-type (n=8) and tk-/- (n=8) subjects. After three minutes, the stimulus female was removed. Thirty minutes later a stimulus male was placed into the subject's homecage. […] The behavior of the subject was quantified from the videotape using the Observer Mobile (Noldus Information Technologies, Sterling, Va.). […] Movement was analyzed in detail using the Clever Sys. […]

The next assay concerns Sprague-Dawley rats. Description: Apomorphine-induced impairment of pre-pulse inhibition. Type of assay: in vivo, rat. The conditions noted are these: haloperidol 0.3 mg/kg i.p., apomorphine 1.0 mg/kg s.c., p<0.001.
The mark [3] stands for this setting: db/db mice with fat diet, vs vehicle-treated mice.

In the case of `Cc1ccc(C(=O)N[C@@H]2C3CCN(CC3)[C@H]2Cc2cccnc2)s1` [Compound B, (2S,3R)—N-(2-((3-pyridinyl)methyl)-1-azabicyclo[2.2.2]oct-3-yl)-5-methylthiophene-2-carboxamide], the “sensory gating (PPI and acoustic startle response)” value in the assay with th(tk-)/th(tk-) mice [1] (control (normal) mice, Compound B) was “no effect on control”. Moreover, the “deficits in sensory gating (PPI and acoustic startle response)” value with th(tk-)/th(tk-) mice [1] (th(tk-)/th(tk-) mice, Compound B (0.1 and 1.0 mg/kg analyzed)) is “reverse deficits in sensory gating”. In the assay with db/db mice (setting [3]), the blood glucose levels entry was “significantly decreases” and the body weight gain result is given as “significantly decreases”. For the same compound, the “time at which effects on glucose and weight gain become apparent” value in the assay with db/db mice (db/db mice, weeks of treatment) amounted to 6 weeks.

`COc1cccc([C@H](O)C2CCN(CCc3ccc(F)cc3)CC2)c1OC` [Compound M100907]: the PPI result was “no effect at any dose” with th(tk-)/th(tk-) mice [1] (control mice, M100907 any dose); “increases of PPI” with th(tk-)/th(tk-) mice [1] (transgenic mice, M100907 middle (0.1 mg/kg) and high (1 mg/kg) doses vs vehicle). Besides, the startle response result in the assay with th(tk-)/th(tk-) mice [1] (control mice, M100907 any dose) is given as “no effect at any dose”; in the assay with th(tk-)/th(tk-) mice [1] (treated transgenic groups vs vehicle, M100907), “significant decrease of startle response”. In addition, the “time spent investigating the stimulus animal” value in the assay on th(tk-)/th(tk-) mice [2] (TK- mice) was “significantly increased”. Moreover, in the assay with th(tk-)/th(tk-) mice [2] (wild-type animals), the “investigation time of stimulus animal” value is “no effect on investigation time”.

For `CN1CCN(C2=Nc3cc(Cl)ccc3Nc3ccccc32)CC1` [clozapine], in the assay on th(tk-)/th(tk-) mice [1] (clozapine 3 mg/kg), the PPI result was “no effect” and the startle response entry is “no effect”.

As for `OCCN1CCN(CC/C=C2/c3ccccc3Sc3ccc(C(F)(F)F)cc32)CC1` [flupenthixol], the startle response entry with th(tk-)/th(tk-) mice [1] (control mice, flupenthixol 1.0 mg/kg vs saline) is given as “decreased”; in the assay with th(tk-)/th(tk-) mice [1] (th(tk-)/th(tk-) mice, flupenthixol 1.0 mg/kg vs saline), “decreased”. In addition, the PPI entry was “no effect of dose” with th(tk-)/th(tk-) mice [1] (control mice, flupenthixol 0.25, 0.5, 1.0 mg/kg) and “increased PPI” in the assay on th(tk-)/th(tk-) mice [1] (th(tk-)/th(tk-) mice, flupenthixol 0.25, 0.5, 1.0 mg/kg, all three stimulus intensities, P<0.01).

For the compound `O=C(CCCN1CCC(O)(c2ccc(Cl)cc2)CC1)c1ccc(F)cc1` [haloperidol, reference compound], the “PPI deficits induced by apomorphine” value with Sprague-Dawley rats is “significantly reversed”.

In the case of `OCCOCCN1CCN(C2=Nc3ccccc3Sc3ccccc32)CC1` [quetiapine], the startle response result in the assay with th(tk-)/th(tk-) mice [1] (control mice, quetiapine any dose) is recorded as “no main effect”; in the assay on th(tk-)/th(tk-) mice [1] (transgenic mice, all doses of quetiapine vs saline, p<0.05), “significant decrease in startle response”. Besides, the PPI entry with th(tk-)/th(tk-) mice [1] (control mice, quetiapine any dose examined) is given as “no significant main effect”; with th(tk-)/th(tk-) mice [1] (th(tk-)/th(tk-) mice, quetiapine 7.0 mg/kg, p<0.001), “normalized the reduced PPI”; with th(tk-)/th(tk-) mice [1] (th(tk-)/th(tk-) mice, quetiapine lower doses (below 7.0 mg/kg)) it was “no effect”. Moreover, the “PPI, main effect” value in the assay on th(tk-)/th(tk-) mice [1] (transgenic th(tk-)/th(tk-) mice, quetiapine 3.0 mg/kg alone) is on record as “no significant main effect”.
